Data set [1] deals with bulrush. Nature of the data set: Test Example 4: low dosage test for rice paddy weeds. Format: in vivo, Scirpus juncoides. To be noted: 300 g/ha as an active ingredient; plants treated at the one leaf stage; 21 days after treatment; vs untreated control. The essentials: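 Bulrush sown in clay loam pots, flooded to 5 cm water in a hot house, treated at the one-leaf stage with formulated compound at 300 g/ha. Efficacy scored 0–4 against untreated control 21 days after treatment (4 = 90–100%, 0 = 0% inhibition).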

The subject of data set [2] is false pimpernel. Nature of the data set: Test Example 2: herbicidal efficacy on rice paddy weeds post-emergence. Format: in vivo, Lindernia pyxidaria. To be noted: post-emergence, one leaf stage, 21 days after treatment.
The test system of data set [3] is bulrush. Put plainly: Test Example 1: herbicidal efficacy on rice paddy weeds pre-emergence. Format: in vivo, Scirpus juncoides. The following applies: 21 days.
The test system of data set [4] is barnyard glass. Nature of the data set: Test Example 2: herbicidal efficacy on rice paddy weeds post-emergence. Format: in vivo, Echinochloa crus-galli. The following applies: post-emergence, one leaf stage, 21 days after treatment. The essentials:
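Plastic pots of 75 cm^2 were filled with clay loam soil and sown with barnyard glass and bulrush seeds, then topped with 75 cm^3 soil containing false pimpernel seeds. The pots were flooded to 5 cm water depth and held in a hot house. Twenty-one days after treatment, herbicidal efficacy was graded against an untreated control.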

The subject of data set [5] is false pimpernel. Put plainly: Test Example 1: herbicidal efficacy on rice paddy weeds pre-emergence. To be noted: 21 days. Format: in vivo, Lindernia pyxidaria.
Data set [6] has as its system transplanted paddy rice plant and Bulrush. Nature of the data set: Test Example 5: selectivity between transplanted paddy rice plant and weeds. In kind it is in vivo. To be noted: (highest dosage with no phytotoxicity to paddy rice)/(lowest dosage with effective level 4 on Bulrush); rice 3000-100 g/ha, Bulrush 300-10 g/ha; 21 days. The essentials:
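Transplanted paddy rice was treated at 3000, 1000, 300 and 100 g/ha active ingredient for phytotoxicity, and post-emergence bulrush at 300, 100, 30 and 10 g/ha. Plants were kept in a hothouse for 21 days. Growth inhibition versus untreated control was scored 0–4 (0%, 1–39%, 40–69%, 70–89%, 90–100%).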

For data set [7], the system named is bulrush. Put plainly: Test Example 2: herbicidal efficacy on rice paddy weeds post-emergence. In kind it is in vivo, Scirpus juncoides. The following applies: post-emergence, one leaf stage, 21 days after treatment.
The test system of data set [8] is paddy rice plant (cultivar: Nihonbare). Nature of the data set: Test Example 3: phytotoxicity test for transplanted paddy rice plant. In kind it is in vivo. To be noted: transplanted rice, 21 days after treatment. An outline of the steps: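 Clay loam soil was placed in a 75 cm^2 plastic pot and flooded to a water depth of 5 cm. Two Nihonbare paddy rice plants at the two-leaf stage were transplanted 1 cm deep and grown in a hot house. After treatment, pots stayed in the hot house for 21 days, and phytotoxicity was then graded against an untreated control.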

Where [9] appears, read: dosage 1000 g/ha, treated 5 days after transplantation.

Experimental findings from patent publication US20080274892A1, “Novel Haloalkylsulfonanilide Derivative, Herbicide, and Method of Use Thereof” (priority 2005, published 2008) are described below.

On to `COC(=O)N(c1ccccc1CN1C(=O)OC(C)(C)C1=O)S(=O)(=O)C(F)(F)F` [1-188], for which the “Herbicide effect to Bulrush” value in data set [1] is recorded as 4 (90%-100% of herbicidal efficacy or phytotoxicity). The “False pimpernel post (herbicidal efficacy grade)” value (“False pimpernel post” for short) in data set [2] (dosage 1000 g/ha) is 4 (90%-100% of herbicidal efficacy or phytotoxicity). In data set [3] (dosage 1000 g/ha), the “Bulrush pre (herbicidal efficacy grade)” value is given as 4 (90%-100% of herbicidal efficacy or phytotoxicity). In addition, the “Burnyard grass post (herbicidal efficacy grade)” value (shortened to “Burnyard grass post”) in data set [4] (dosage 1000 g/ha) is listed as 4 (90%-100% of herbicidal efficacy or phytotoxicity). In addition, the “False pimpernel pre (herbicidal efficacy grade)” value (shortened to “False pimpernel pre”) in data set [5] (dosage 1000 g/ha) was 4 (90%-100% of herbicidal efficacy or phytotoxicity). Besides, in data set [6], the “Selective Index” value is given as “≧10”. Also, the “Bulrush post (herbicidal efficacy grade)” value in data set [7] (dosage 1000 g/ha) is reported as 4 (90%-100% of herbicidal efficacy or phytotoxicity). Further, the “Phytotoxicity to paddy rice” value in data set [8] (setting [9]) is 1 (1%-39% of herbicidal efficacy or phytotoxicity).

For the compound `CCC1OC(=O)N(Cc2ccccc2NS(=O)(=O)C(F)(F)F)C1=O` (stereo not drawn) [1-192], the “Herbicide effect to Bulrush” value in data set [1] is 4 (90%-100% of herbicidal efficacy or phytotoxicity). Further, the “False pimpernel post” value in data set [2] (dosage 300 g/ha) was 0 (0% of herbicidal efficacy or phytotoxicity). Besides, in data set [3] (dosage 300 g/ha), the “Bulrush pre (herbicidal efficacy grade)” value is 4 (90%-100% of herbicidal efficacy or phytotoxicity). Further, in data set [4] (dosage 300 g/ha), the “Burnyard grass post” value is recorded as 0 (0% of herbicidal efficacy or phytotoxicity). Also, the “False pimpernel pre” value in data set [5] (dosage 300 g/ha) was 4 (90%-100% of herbicidal efficacy or phytotoxicity). The “Selective Index” value in data set [6] stood at 10. In addition, the “Bulrush post (herbicidal efficacy grade)” value in data set [7] (dosage 300 g/ha) is 4 (90%-100% of herbicidal efficacy or phytotoxicity). Further, the “Phytotoxicity to paddy rice” value in data set [8] (dosage 300 g/ha) is recorded as 1 (1%-39% of herbicidal efficacy or phytotoxicity).

For the compound `CCCCOC(=O)N(c1ccccc1CN1C(=O)OC(C)(C)C1OC)S(=O)(=O)C(F)(F)F` (stereo not drawn) [1-196], the “Herbicide effect to Bulrush” value in data set [1] is recorded as 4 (90%-100% of herbicidal efficacy or phytotoxicity). In data set [2] (dosage 1000 g/ha), the “False pimpernel post” value is 4 (90%-100% of herbicidal efficacy or phytotoxicity). In addition, the “Bulrush pre (herbicidal efficacy grade)” value in data set [3] (dosage 1000 g/ha) is on record as 4 (90%-100% of herbicidal efficacy or phytotoxicity). Further, in data set [4] (dosage 1000 g/ha), the “Burnyard grass post” value was 4 (90%-100% of herbicidal efficacy or phytotoxicity). The “False pimpernel pre” value in data set [5] (dosage 1000 g/ha) was 4 (90%-100% of herbicidal efficacy or phytotoxicity). The “Selective Index” value in data set [6] was 10. In addition, in data set [7] (dosage 1000 g/ha), the “Bulrush post (herbicidal efficacy grade)” value is listed as 4 (90%-100% of herbicidal efficacy or phytotoxicity). Moreover, the “Phytotoxicity to paddy rice” value in data set [8] (setting [9]) is 1 (1%-39% of herbicidal efficacy or phytotoxicity).

Consider `CC(C)COC(=O)N(c1ccccc1CN1CCOC1=O)S(=O)(=O)C(F)(F)F` [Compound No. 1-2], for which the “Herbicide effect to Bulrush” value in data set [1] is given as 3 (70%-89% of herbicidal efficacy or phytotoxicity). For the same compound, the “False pimpernel post” value in data set [2] (dosage 1000 g/ha) is 4 (90%-100% of herbicidal efficacy or phytotoxicity). For the same compound, in data set [3] (dosage 1000 g/ha), the “Bulrush pre (herbicidal efficacy grade)” value is listed as 4 (90%-100% of herbicidal efficacy or phytotoxicity). The “Burnyard grass post” value in data set [4] (dosage 1000 g/ha) is given as 4 (90%-100% of herbicidal efficacy or phytotoxicity). In data set [5] (dosage 1000 g/ha), the “False pimpernel pre” value is 4 (90%-100% of herbicidal efficacy or phytotoxicity). In data set [6], the “Selective Index” value turned out to be 3. The “Bulrush post (herbicidal efficacy grade)” value in data set [7] (dosage 1000 g/ha) was 4 (90%-100% of herbicidal efficacy or phytotoxicity). Besides, the “Phytotoxicity to paddy rice” value in data set [8] (setting [9]) was 1 (1%-39% of herbicidal efficacy or phytotoxicity).

On to `CC(C)COC(=O)N(c1ccccc1CN1CC(C)OC1=O)S(=O)(=O)C(F)(F)F` (stereo not drawn) [Compound No. 1-18], for which the “Herbicide effect to Bulrush” value in data set [1] is 4 (90%-100% of herbicidal efficacy or phytotoxicity). Further, the “False pimpernel post” value in data set [2] (dosage 1000 g/ha) was 4 (90%-100% of herbicidal efficacy or phytotoxicity). Also, the “Bulrush pre (herbicidal efficacy grade)” value in data set [3] (dosage 1000 g/ha) was 4 (90%-100% of herbicidal efficacy or phytotoxicity). In data set [4] (dosage 1000 g/ha), the “Burnyard grass post” value was 4 (90%-100% of herbicidal efficacy or phytotoxicity). In addition, the “False pimpernel pre” value in data set [5] (dosage 1000 g/ha) is given as 4 (90%-100% of herbicidal efficacy or phytotoxicity). Also, the “Selective Index” value in data set [6] amounted to 33. In addition, the “Bulrush post (herbicidal efficacy grade)” value in data set [7] (dosage 1000 g/ha) is recorded as 4 (90%-100% of herbicidal efficacy or phytotoxicity). Also, the “Phytotoxicity to paddy rice” value in data set [8] (setting [9]) is 0 (0% of herbicidal efficacy or phytotoxicity).

As for `CC(C)COC(=O)N(c1ccccc1CN1CC(C)OC1=S)S(=O)(=O)C(F)(F)F` (stereo not drawn) [Compound No. 1-22, 5-methyl-3-{2-[N-(isobutoxycarbonyl)-N-(trifluoromethanesulfonyl)amino]benzyl}-2-oxazolidinethione], the “Herbicide effect to Bulrush” value in data set [1] is 4 (90%-100% of herbicidal efficacy or phytotoxicity). Further, the “False pimpernel post” value in data set [2] (dosage 1000 g/ha) was 4 (90%-100% of herbicidal efficacy or phytotoxicity). The “Bulrush pre (herbicidal efficacy grade)” value in data set [3] (dosage 1000 g/ha) is given as 4 (90%-100% of herbicidal efficacy or phytotoxicity). The “Burnyard grass post” value in data set [4] (dosage 1000 g/ha) was 4 (90%-100% of herbicidal efficacy or phytotoxicity). For the same compound, the “False pimpernel pre” value in data set [5] (dosage 1000 g/ha) was 4 (90%-100% of herbicidal efficacy or phytotoxicity). Also, the “Selective Index” value in data set [6] stood at 33. For the same compound, the “Bulrush post (herbicidal efficacy grade)” value in data set [7] (dosage 1000 g/ha) was 4 (90%-100% of herbicidal efficacy or phytotoxicity). In addition, the “Phytotoxicity to paddy rice” value in data set [8] (setting [9]) was 0 (0% of herbicidal efficacy or phytotoxicity).

As for `CCC1CN(Cc2ccccc2NS(=O)(=O)C(F)(F)F)C(=O)O1` (stereo not drawn) [Compound No. 1-23, 5-ethyl-3-[2-(trifluoromethanesulfonylamino)benzyl]-2-oxazolidinone], the “Herbicide effect to Bulrush” value in data set [1] is given as 4 (90%-100% of herbicidal efficacy or phytotoxicity). In data set [2] (dosage 1000 g/ha), the “False pimpernel post” value was 4 (90%-100% of herbicidal efficacy or phytotoxicity). Also, in data set [3] (dosage 1000 g/ha), the “Bulrush pre (herbicidal efficacy grade)” value is 4 (90%-100% of herbicidal efficacy or phytotoxicity). Moreover, in data set [4] (dosage 1000 g/ha), the “Burnyard grass post” value was 4 (90%-100% of herbicidal efficacy or phytotoxicity). For the same compound, the “False pimpernel pre” value in data set [5] (dosage 1000 g/ha) is reported as 4 (90%-100% of herbicidal efficacy or phytotoxicity). Besides, in data set [6], the “Selective Index” value is listed as 10. Further, the “Bulrush post (herbicidal efficacy grade)” value in data set [7] (dosage 1000 g/ha) was 4 (90%-100% of herbicidal efficacy or phytotoxicity). Also, the “Phytotoxicity to paddy rice” value in data set [8] (setting [9]) is listed as 1 (1%-39% of herbicidal efficacy or phytotoxicity).

For `CC(C)COC(=O)N(c1ccccc1CN1CC(C)(C)SC1=O)S(=O)(=O)C(F)(F)F` [Compound No. 1-185, 3-{2-[N-(isobutoxycarbonyl)-N-(trifluoromethanesulfonyl)amino]benzyl}-5,5-dimethylthiazolidin-2-one], the “Herbicide effect to Bulrush” value in data set [1] was 4 (90%-100% of herbicidal efficacy or phytotoxicity). Besides, in data set [2] (dosage 1000 g/ha), the “False pimpernel post” value is 4 (90%-100% of herbicidal efficacy or phytotoxicity). Moreover, in data set [3] (dosage 1000 g/ha), the “Bulrush pre (herbicidal efficacy grade)” value is given as 4 (90%-100% of herbicidal efficacy or phytotoxicity). The “Burnyard grass post” value in data set [4] (dosage 1000 g/ha) is listed as 4 (90%-100% of herbicidal efficacy or phytotoxicity). The “False pimpernel pre” value in data set [5] (dosage 1000 g/ha) is 4 (90%-100% of herbicidal efficacy or phytotoxicity). For the same compound, the “Selective Index” value in data set [6] stood at 33.3. Besides, in data set [7] (dosage 1000 g/ha), the “Bulrush post (herbicidal efficacy grade)” value is 4 (90%-100% of herbicidal efficacy or phytotoxicity). For the same compound, the “Phytotoxicity to paddy rice” value in data set [8] (setting [9]) is reported as 0 (0% of herbicidal efficacy or phytotoxicity).

On to `CC1(C)OC(=O)N(Cc2ccccc2NS(=O)(=O)C(F)(F)F)C1=O` [Compound No. 1-187, 5,5-dimethyl-3-[2-(trifluoromethanesulfonylamino)benzyl]oxazolidine-2,4-dione], for which the “Herbicide effect to Bulrush” value in data set [1] was 4 (90%-100% of herbicidal efficacy or phytotoxicity). The “False pimpernel post” value in data set [2] (dosage 1000 g/ha) is 4 (90%-100% of herbicidal efficacy or phytotoxicity). Also, the “Bulrush pre (herbicidal efficacy grade)” value in data set [3] (dosage 1000 g/ha) is given as 4 (90%-100% of herbicidal efficacy or phytotoxicity). Further, the “Burnyard grass post” value in data set [4] (dosage 1000 g/ha) was 4 (90%-100% of herbicidal efficacy or phytotoxicity). Besides, in data set [5] (dosage 1000 g/ha), the “False pimpernel pre” value is given as 4 (90%-100% of herbicidal efficacy or phytotoxicity). Besides, the “Selective Index” value in data set [6] is listed as “≧10”. The “Bulrush post (herbicidal efficacy grade)” value in data set [7] (dosage 1000 g/ha) is recorded as 4 (90%-100% of herbicidal efficacy or phytotoxicity). The “Phytotoxicity to paddy rice” value in data set [8] (setting [9]) is recorded as 3 (70%-89% of herbicidal efficacy or phytotoxicity).
